In US10300176B2, “Catheter lock solution formulations” (Medline Industries, Inc., priority 2013, dated 2019):

Assay: break through pressure or vacuum level after exhaustive drying of lock formulations in simulated silicone catheter tubing
Assay type: physicochemical
Conditions: excipient at approximately 1% by weight
Excerpt: FIG. 1 is a view of a sphygmomanometer 10 connected to a syringe 12. The sphygmomanometer 10 includes a gauge 14 with a visual display 16 to measure the pressure or vacuum level. The sphygmomanometer 10 and the syringe 12 were used to measure the break through pressure or vacuum level.
Long silicone rubber commercial catheter extension tubing segments spliced together, or a single small bore with a 1.5 mm inner diameter clear, and very soft laboratory silicone rubber tubing of about 15 inch in length were used for evaluation. Formulations of 30% weight per volume (w/v) ethanol and 4% weight per weight (w/w) tri-sodium citrate with candidate biocompatible excipients were prepared and charged into the lumens of simulated catheter tubings and capped with solid plugs. The samples were first dried near a de-humidifier for about 24 hours to allow evaporation of most ethanol before being placed into a clear polycarbonate drying column connected in series with a large Drierite® desiccant column. The columns were also fitted with a gas flow meter and a diaphragm gas pump to provide closed loop gas circulation at about 4 liter per minute (min-1). […] Both the pressure (+) or vacuum (−) levels to cause the liquid or solid plug movement were measured when subjected to actuation movements from a small air filled syringe 12 connected to a sphygmomanometer 10. […]

Question: Which results are given for `OCC(O)CO` [glycerol]?
Answer: effectiveness of excipient in words: conditionally acceptable; time free flowing: greater than 7 days
